Results reported in PMC3705412, “PTP1B Inhibitory and Anti-Inflammatory Effects of Secondary Metabolites Isolated from the Marine-Derived Fungus Penicillium sp. JF-55” (Marine Drugs, 2013).

Tests used:
[1] = tested on: COX-2-derived PGE2 production in murine peritoneal macrophages; test: PGE2 production in LPS-stimulated macrophages, ELISA; type: cell-based, murine (C57BL/6 mice); conditions: Mus musculus, Peritoneal macrophage; pre-treated 12 h, LPS 1 μg/mL 18 h
Protocol: C57BL/6 mice were purchased from Orient Bio Co. (Sungnam, Kyung-Kido, Korea). TG-elicited peritoneal macrophages were harvested four days after intraperitoneal (i.p.) injection of 3 mL of TG [37]. Peritoneal lavage was performed using 8 mL of Hanks’ Balanced Salt Solution containing 10 U/mL heparin. The cells were distributed in Roswell Park Memorial Institute medium (RPMI) supplemented with 10% heat-inactivated FBS, in 6-well tissue culture plates (5 × 10^6 cells/mL). The level of PGE2, TNF-α or IL-1β present in each sample was determined using a commercially available kit from R & D Systems. The assay was performed according to the manufacturer’s instructions. Briefly, murine peritoneal macrophages were cultured in 24-well plates, pre-incubated for 12 h with different concentrations of compounds 1–3, and then stimulated for 18 h with LPS. The cell culture supernatants were then immediately collected after treatment and centrifuged at 13,000× g for 2 min to remove particulate matter. The medium was added to a 96-well plate pre-coated with affinity-purified PGE2-specific polyclonal antibodies or the medium was added to a 96-well plate pre-coated with affinity-purified polyclonal antibodies that were specific to mouse TNF-α or IL-1β. An enzyme-linked polyclonal antibody specific for PGE2, mouse TNF-α or IL-1β was added to the wells for 20 h, followed by a final wash to remove any unbound antibody-enzyme reagent. A substrate solution was added, and the intensity of the color produced, which was measured at 450 nm (the correction wavelength was set at 540 nm or 570 nm), was proportional to the amount of PGE2, TNF-α or IL-1β present.

HO-1 = test: Effect of the HO-1 inhibitor SnPP on the inhibition of pro-inflammatory mediators in LPS-stimulated macrophages; type: cell-based, murine (C57BL/6 mice); conditions: 40 μM pre-treatment 12 h, SnPP 50 μM, LPS 1 μg/mL 18 h
Protocol: Figure 8 The effects of SnPP on the inhibition of nitrite production (A), PGE2 production (B), NF-κB DNA-binding activity (C), TNF-α production (D), and IL-1β production (E) by penstyrylpyrone (1) pre-treatment of LPS-stimulated murine peritoneal macrophages. Murine peritoneal macrophages were pre-treated for 12 h with penstyrylpyrone (1) (40μM), in the presence or absence of SnPP (50 μM) and stimulated for 18 h with LPS (1μg/mL). The nitrite (A), PGE2 (B), TNF-α (D), and IL-1β (E) concentrations and nuclear NF-κB DNA-binding activity (C) were investigated as described in Materials and Methods. […]
The production of nitrite, a stable end product of NO oxidation, was used as a measure of iNOS activity. The nitrite present in the conditioned medium was determined using a method based on the Griess reaction.
The level of PGE2, TNF-α or IL-1β present in each sample was determined using a commercially available kit from R & D Systems. […] A substrate solution was added, and the intensity of the color produced, which was measured at 450 nm (the correction wavelength was set at 540 nm or 570 nm), was proportional to the amount of PGE2, TNF-α or IL-1β present.
The DNA-binding activity of NF-κB in the nuclear extracts was measured using the TransAM kit (Active Motif, Carlsbad, CA, USA) according to the manufacturer’s instructions.

Structure (SMILES): COc1cc(/C=C/c2ccccc2)oc(=O)c1C [Penstyrylpyrone (1), penstyrylpyrone]
- IC50 [1]: 9.35 µM
- Suppressive effects on LPS-stimulated NO, PGE2, TNF-α, IL-1β production and NF-κB DNA-binding activity in presence of SnPP (HO-1): partially reversed by SnPP
